Laboratory results as given in article PMC4906375, “Contribution of Amphipathicity and Hydrophobicity to the Antimicrobial Activity and Cytotoxicity of β-Hairpin Peptides” (ACS Infectious Diseases, 2016).
Converted amounts (≈) assume the structure as drawn. Residues, ends and D or L forms follow the SMILES beside them.

Experiments:
K. pneumoniae ATCC 13883 = type: cell-based, Klebsiella pneumoniae; conditions: ATCC 13883
Procedure: (§1) Both antibacterial and antifungal MIC assays were performed by a broth microdilution plate based method as per CLSI guidelines for antimicrobial susceptibility testing.[53],[54] […] Full assay details are included in the Supporting Information with a full list of strains tested in Table S1.
(§2) Antibacterial assay (Minimum Inhibitory Concentration [MIC]).
(§3) MIC assay was performed by a broth microdilution plate based method as per CLSI guidelines for antimicrobial susceptibility testing of aerobic bacteria.1 Compounds were prepared at 1.28 mg/mL solution in water. The tested strains, Table S1, were cultured in Luria broth (LB) (In Vitro Technologies, USB75852), at 37 °C overnight. A sample of culture was then diluted 40Pfold in fresh Muller Hinton broth (MHB) (Bacto laboratories, 211443) and incubated at 37 °C for 1.5P2 h. The compounds were serially diluted twoPfold across the wells, with compound concentrations ranging from 0.015 µg/mL to 512 µg/mL, plated in duplicate. The resultant midPlog phase cultures were diluted to the final concentration of 1×10^6 CFU/mL, then 50 µL was added to each well of the compoundP containing 96Pwell plates (Corning 3641, NonPbinding Surface [NBS]), giving a final compound concentration range of 0.008 µg/mL to 256 µg/mL and 5x10^5 CFU/mL. All the plates were covered and incubated at 37 °C for 18 h. MICs were determined visually, being defined as the lowest concentration showing no visible growth. Resazurin was added at 0.001% final concentration to each well and incubated for 2 h before MICs were rePread for confirmation using the colour change from blue to pink to indicate wells containing viable cells. The resazurin assay was added in some wells where some form of precipitate was present in otherwise clear wells, making it difficult to ascertain which wells had visible […]
(§4) Antifungal assay (Minimum Inhibitory Concentration [MIC]). MIC assay was performed by a broth microdilution plate based method as per CLSI guidelines for antimicrobial susceptibility testing.2 Fungi strains, Table S1, were cultured for 3 days on Yeast ExtractPPeptone Dextrose (YPD) (SigmaPAldrich, Y1500) agar at 30 °C. A yeast suspension of 1x10^6 to 5x10^6 CFU/mL was prepared from five colonies. These stock suspensions were diluted with Yeast Nitrogen Base (YNB) (Becton Dickinson, 233520) broth to a final concentration of 2.5 ×10^3 CFU/mL. All samples, compounds and standards were plated in 96Pwell plates (Corning 3641, NonPbinding Surface [NBS]), by adding 10 µL of 1.28 mg/mL stock solution to each well and 90 µL of media. Then, the samples were serial diluted (1:2) in 12 concentrations across the plate. The standard antifungal ranged from 256

[1] = tested on: K. pneumoniae ATCC 700603 (MDR); type: cell-based, Klebsiella pneumoniae; conditions: n = 4
Procedure: as §1, §2, §3, §4

[2] = tested on: K. pneumoniae BAA 2146 (NDM-1 pos); type: cell-based, Klebsiella pneumoniae; conditions: n = 4
Procedure: as §1, §2, §3, §4

B. subtilis ATCC 6051 = experiment: microbe, parasite or virus in culture; type: cell-based, Bacillus subtilis; conditions: ATCC 6051
Procedure: as §1, §2, §3, §4

[3] = tested on: S. aureus ATCC 43300 (MRSA); experiment: microbe, parasite or virus in culture; type: cell-based, Staphylococcus aureus; conditions: S. aureus ATCC 43300 (MRSA); n = 4
Procedure: as §1, §2, §3, §4

C. albicans ATCC 90028 = experiment: microbe, parasite or virus in culture; type: cell-based, Candida albicans
Procedure: as §1, §2, §3
as §4, with “256 […]” for “256”
µg/mL to 0.12 µg/mL and compounds from 128 µg/mL to 0.06 µg/mL with final volumes of 50 µL per well, plated in duplicate. Then, 50 µL of the fungi suspension that was previously prepared in YNB broth to the final concentration of 2.5×10^3 CFU/mL, was added to each well of the compoundPcontaining plates, giving a final standard compound concentration range of 128 µg/mL to 0.06 µg/mL and tested compound from 64 µg/mL to 0.03 µg/mL. Plates were covered and incubated at 35 °C for 24 h. Candida albicans MICs were determined by measuring the absorbance at OD530. For Cryptococcus neoformans 10 µL of 0.06 % resazurin were added to the 24 h incubated plates. Then, these plates were incubated for another 3 h.
Cryptococcus neoformans MICs were determined by measuring the absorbance at OD570P600. […]

[4] = hemolysis (%) at 300 μg/mL, human erythrocytes, 3 h, relative to 100% hemolysis by 1% Triton X-100
[5] = tested on: E. coli ATCC 25922 cytoplasmic membrane; experiment: Inner membrane permeability measured by SYTOX green fluorescence emission; conditions: for permeabilisation of the E. coli cytoplasmic membrane at lethal concentrations: SYTOX green, E. coli ATCC 25922, 1 h

SMILES	MIC (K. pneumoniae ATCC 13883) [µg/mL]	MIC [1] [µg/mL]	MIC [2] [µg/mL]	MIC (B. subtilis ATCC 6051) [µg/mL]	MIC [3] [µg/mL]	MIC (C. albicans ATCC 90028; ATCC 90028) [µg/mL]	hemolysis [4] [%]	permeabilisation of the E. coli cytoplasmic membrane at lethal concentrations [5]	permeabilization concentration relative to MIC ([5]; same E. coli ATCC 25922 strain)	MIC (C. albicans ATCC 90028; C. albicans ATCC 90028, n = 4) [µg/mL]
CC(C)[C@@H]1NC(=O)[C@H](CCCNC(=N)N)NC(=O)[C@H](Cc2ccccc2)NC(=O)[C@@H](NC(=O)[C@H](Cc2c[nH]c3ccccc23)NC(=O)[C@H](CCCNC(=N)N)NC(=O)[C@@H](N)CCCNC(=N)N)CSSC[C@@H](C(=O)N[C@@H](CCCNC(=N)N)C(N)=O)NC(=O)[C@H](CCCCN)NC(=O)[C@H](CCCNC(=N)N)NC(=O)[C@H](Cc2ccc(O)cc2)NC(=O)[C@@H]2CSSC[C@H](NC1=O)C(=O)N[C@@H](Cc1ccc(O)cc1)C(=O)N[C@@H](CCCNC(=N)N)C(=O)NCC(=O)N[C@@H](Cc1ccccc1)C(=O)N2 [polyphemusin-1] (HELM PEPTIDE1{R.R.W.C.F.R.V.C.Y.R.G.F.C.Y.R.K.C.R.[am]}$PEPTIDE1,PEPTIDE1,4:R3-17:R3|PEPTIDE1,PEPTIDE1,8:R3-13:R3$$$V2.0)	0.5 (≈ 0.204 µM)	1 (≈ 0.407 µM)	2 (≈ 0.815 µM)	0.25 (≈ 0.102 µM)	2 (≈ 0.815 µM)	1 (≈ 0.407 µM)	~30	permeabilise	lower concentration than their MIC	
[H][C@]12CSSC[C@]([H])(NC(=O)[C@]([H])([C@@H](C)CC)NC(=O)CNC(=O)[C@H](CCCNC(=N)N)NC(=O)[C@H](Cc3ccc(O)cc3)NC1=O)C(=O)N[C@@H](Cc1ccc(O)cc1)C(=O)N[C@@H](CCCNC(=N)N)C(=O)N[C@@H](CCCNC(=N)N)C(=O)N[C@H](C(=O)N[C@@H](CCCNC(=N)N)C(N)=O)CSSC[C@H](NC(=O)[C@H](Cc1c[nH]c3ccccc13)NC(=O)[C@@H](N)CCCCN)C(=O)N[C@@H](Cc1ccccc1)C(=O)N[C@@H](CCCNC(=N)N)C(=O)N[C@@H](C(C)C)C(=O)N2 [tachyplesin-1] (HELM PEPTIDE1{K.W.C.F.R.V.C.Y.R.G.I.C.Y.R.R.C.R.[am]}$PEPTIDE1,PEPTIDE1,3:R3-16:R3|PEPTIDE1,PEPTIDE1,7:R3-12:R3$$$V2.0)	0.125 (≈ 0.0552 µM)	0.25 (≈ 0.11 µM)	0.25 (≈ 0.11 µM)	0.125 (≈ 0.0552 µM)	1 (≈ 0.442 µM)	4 (≈ 1.77 µM)	~30	permeabilise		
CC(C)[C@@H]1NC(=O)CNC(=O)[C@H](CC(N)=O)NC(=O)[C@H](CCCNC(=N)N)NC(=O)[C@H](Cc2ccc(O)cc2)NC(=O)[C@H](C(C)C)NC(=O)[C@@H]2CSSC[C@H](NC(=O)[C@H](C(C)C)NC(=O)[C@H](CCCNC(=N)N)NC1=O)C(=O)N[C@@H](Cc1ccc(O)cc1)C(=O)N[C@@H](CCCNC(=N)N)C(=O)N[C@@H](CCCNC(=N)N)C(=O)N[C@H](C(=O)N[C@@H](CC(N)=O)C(=O)O)CSSC[C@H](NC(=O)[C@H](Cc1ccccc1)NC(=O)CN)C(=O)N[C@@H](Cc1c[nH]c3ccccc13)C(=O)N[C@@H](Cc1ccc(O)cc1)C(=O)N[C@@H](C(C)C)C(=O)N2 [arenicin-3] (HELM PEPTIDE1{G.F.C.W.Y.V.C.V.Y.R.N.G.V.R.V.C.Y.R.R.C.N}$PEPTIDE1,PEPTIDE1,3:R3-20:R3|PEPTIDE1,PEPTIDE1,7:R3-16:R3$$$V2.0)	1 (≈ 0.383 µM)	4 (≈ 1.53 µM)	4 (≈ 1.53 µM)	8 (≈ 3.06 µM)	64 (≈ 24.5 µM)	64 (≈ 24.5 µM)	4	permeabilise		
CC[C@H](C)[C@H](NC(=O)[C@@H](NC(=O)[C@@H]1CCCN1C(=O)[C@@H](NC(=O)[C@@H]1CCCN1C(=O)[C@H](CCCCN)NC(=O)[C@H](CCCCN)NC(=O)[C@H](CO)NC(=O)CN)C(C)C)[C@@H](C)CC)C(=O)N[C@@H](Cc1ccc(O)cc1)C(=O)N[C@H]1CSSC[C@@H](C(=O)N[C@@H](CCC(N)=O)C(=O)N[C@@H](CCCNC(=N)N)C(=O)N[C@@H](CCSC)C(N)=O)NC(=O)[C@H](CCCCN)NC(=O)CNC(=O)[C@H]([C@@H](C)O)NC(=O)[C@H](CCCNC(=N)N)NC(=O)[C@H](CCCNC(=N)N)NC(=O)[C@H](CC(N)=O)NC1=O [thanatin]	8 (≈ 3.29 µM)	64 (≈ 26.3 µM)	256 (≈ 105 µM)	128 (≈ 52.6 µM)	256 (≈ 105 µM)		1.3 ± 0.4	does not permeabilise		64 (≈ 26.3 µM)
